Assay [1] concerns the target T1, Inhibitor of nuclear factor kappa-B kinase subunit beta (Homo sapiens) (UniProt O14920).
T1 sequence (whole entry): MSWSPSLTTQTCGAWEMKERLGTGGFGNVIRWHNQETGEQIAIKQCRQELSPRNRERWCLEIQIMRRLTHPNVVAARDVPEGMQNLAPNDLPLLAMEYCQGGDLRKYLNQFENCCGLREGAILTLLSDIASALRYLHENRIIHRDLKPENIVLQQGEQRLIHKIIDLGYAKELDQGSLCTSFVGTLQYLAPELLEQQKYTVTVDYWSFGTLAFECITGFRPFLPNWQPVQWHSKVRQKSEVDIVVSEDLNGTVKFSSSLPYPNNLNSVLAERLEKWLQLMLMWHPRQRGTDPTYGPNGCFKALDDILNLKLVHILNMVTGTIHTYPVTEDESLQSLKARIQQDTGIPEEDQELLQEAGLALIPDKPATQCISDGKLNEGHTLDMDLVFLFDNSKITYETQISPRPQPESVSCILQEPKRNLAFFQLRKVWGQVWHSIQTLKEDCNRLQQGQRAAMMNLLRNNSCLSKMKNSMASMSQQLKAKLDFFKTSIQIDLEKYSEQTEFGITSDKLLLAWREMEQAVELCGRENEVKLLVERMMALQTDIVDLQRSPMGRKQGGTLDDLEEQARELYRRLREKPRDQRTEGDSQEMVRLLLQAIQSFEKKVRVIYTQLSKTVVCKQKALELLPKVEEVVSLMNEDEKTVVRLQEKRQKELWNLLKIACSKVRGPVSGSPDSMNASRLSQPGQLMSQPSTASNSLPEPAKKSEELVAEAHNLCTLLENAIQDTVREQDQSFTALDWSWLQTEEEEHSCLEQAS
Put plainly: Inhibition of IKK-beta at 0.1 uM; values are per cent of control.

Assay [2] has as its target Ephrin type-A receptor 4 (Homo sapiens) (UniProt P54764). Put plainly: Inhibition of EphA4 at 0.1 uM; values are per cent of control.
For assay [3], the target named is RAF proto-oncogene serine/threonine-protein kinase (Homo sapiens) (UniProt P04049). Put plainly: Inhibition of c-RAF at 0.1 uM; values are per cent of control.
Assay [4] deals with MAP kinase-activated protein kinase 2 (Homo sapiens) (UniProt P49137). In words: Inhibition of MAPKAP-K2 at 1 uM.
Assay [5] deals with T2, Mitogen-activated protein kinase 12 (Homo sapiens) (UniProt P53778).
T2 sequence (whole entry): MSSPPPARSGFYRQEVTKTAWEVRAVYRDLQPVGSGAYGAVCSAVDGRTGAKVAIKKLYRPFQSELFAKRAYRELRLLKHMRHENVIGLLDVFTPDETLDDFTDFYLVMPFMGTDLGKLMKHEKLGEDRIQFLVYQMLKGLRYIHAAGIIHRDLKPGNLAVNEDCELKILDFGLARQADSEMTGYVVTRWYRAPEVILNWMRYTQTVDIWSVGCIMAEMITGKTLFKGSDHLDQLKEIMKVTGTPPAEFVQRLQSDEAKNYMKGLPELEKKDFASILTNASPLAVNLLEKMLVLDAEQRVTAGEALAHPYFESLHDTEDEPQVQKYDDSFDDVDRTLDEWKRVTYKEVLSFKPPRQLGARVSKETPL
Put plainly: Inhibition of SAPK3 at 0.1 uM; values are per cent of control.

In assay [6] the target is Serine/threonine-protein kinase PLK2 (Homo sapiens) (UniProt Q9NYY3). Put plainly: Inhibition of Snk at 0.1 uM; values are per cent of control.
The target in assay [7] is T3, Serine/threonine-protein kinase STK11 (Homo sapiens) (UniProt Q15831).
T3 sequence (whole entry): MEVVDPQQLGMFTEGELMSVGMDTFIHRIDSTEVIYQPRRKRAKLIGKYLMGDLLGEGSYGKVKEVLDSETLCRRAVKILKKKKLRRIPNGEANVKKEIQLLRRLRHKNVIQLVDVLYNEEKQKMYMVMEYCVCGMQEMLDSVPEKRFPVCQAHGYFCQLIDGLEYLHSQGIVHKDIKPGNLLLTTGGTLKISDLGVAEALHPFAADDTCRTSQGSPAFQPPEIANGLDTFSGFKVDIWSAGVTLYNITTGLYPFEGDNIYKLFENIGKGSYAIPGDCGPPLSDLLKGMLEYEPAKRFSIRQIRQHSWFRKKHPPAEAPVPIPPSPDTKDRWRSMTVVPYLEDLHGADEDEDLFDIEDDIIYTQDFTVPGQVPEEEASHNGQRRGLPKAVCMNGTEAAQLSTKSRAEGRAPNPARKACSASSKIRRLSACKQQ
Put plainly: Inhibition of LKB1 at 0.1 uM; values are per cent of control.

In assay [8] the target is Mitogen-activated protein kinase 14 (Homo sapiens) (UniProt Q16539). In words: Inhibition of SAPK2a at 0.1 uM; values are per cent of control.
Assay [9] has as its target T4, Tyrosine-protein kinase ITK/TSK (Homo sapiens) (UniProt Q08881).
T4 sequence (whole entry): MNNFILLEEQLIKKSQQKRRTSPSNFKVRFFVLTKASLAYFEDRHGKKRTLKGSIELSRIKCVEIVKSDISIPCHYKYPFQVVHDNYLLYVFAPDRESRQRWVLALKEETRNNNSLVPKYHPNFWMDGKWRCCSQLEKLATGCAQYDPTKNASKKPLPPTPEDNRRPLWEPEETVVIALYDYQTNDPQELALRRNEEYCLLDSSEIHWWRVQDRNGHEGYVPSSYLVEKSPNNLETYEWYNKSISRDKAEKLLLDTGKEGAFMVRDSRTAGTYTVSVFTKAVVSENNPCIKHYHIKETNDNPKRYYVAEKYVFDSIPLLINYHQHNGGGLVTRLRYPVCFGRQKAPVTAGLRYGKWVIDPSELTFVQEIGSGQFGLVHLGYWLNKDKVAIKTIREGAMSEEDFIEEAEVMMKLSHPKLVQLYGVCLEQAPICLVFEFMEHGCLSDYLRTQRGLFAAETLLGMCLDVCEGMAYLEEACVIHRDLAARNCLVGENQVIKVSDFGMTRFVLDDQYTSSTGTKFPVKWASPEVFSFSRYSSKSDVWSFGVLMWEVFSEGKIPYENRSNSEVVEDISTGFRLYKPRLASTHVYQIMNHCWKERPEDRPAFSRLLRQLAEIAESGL
Put plainly: Inhibition of Itk at 1 uM; values are per cent of control.

Assay [10] has as its target Tyrosine-protein kinase ABL1 (Homo sapiens) (UniProt P00519). In words: Inhibition of Abl at 1 uM; values are per cent of control.
The target in assay [11] is Angiopoietin-1 receptor (Homo sapiens) (UniProt Q02763). Put plainly: Inhibition of Tie2 at 0.1 uM; values are per cent of control.
Chain of Angiopoietin-1 receptor (Homo sapiens) (Q02763 whole entry): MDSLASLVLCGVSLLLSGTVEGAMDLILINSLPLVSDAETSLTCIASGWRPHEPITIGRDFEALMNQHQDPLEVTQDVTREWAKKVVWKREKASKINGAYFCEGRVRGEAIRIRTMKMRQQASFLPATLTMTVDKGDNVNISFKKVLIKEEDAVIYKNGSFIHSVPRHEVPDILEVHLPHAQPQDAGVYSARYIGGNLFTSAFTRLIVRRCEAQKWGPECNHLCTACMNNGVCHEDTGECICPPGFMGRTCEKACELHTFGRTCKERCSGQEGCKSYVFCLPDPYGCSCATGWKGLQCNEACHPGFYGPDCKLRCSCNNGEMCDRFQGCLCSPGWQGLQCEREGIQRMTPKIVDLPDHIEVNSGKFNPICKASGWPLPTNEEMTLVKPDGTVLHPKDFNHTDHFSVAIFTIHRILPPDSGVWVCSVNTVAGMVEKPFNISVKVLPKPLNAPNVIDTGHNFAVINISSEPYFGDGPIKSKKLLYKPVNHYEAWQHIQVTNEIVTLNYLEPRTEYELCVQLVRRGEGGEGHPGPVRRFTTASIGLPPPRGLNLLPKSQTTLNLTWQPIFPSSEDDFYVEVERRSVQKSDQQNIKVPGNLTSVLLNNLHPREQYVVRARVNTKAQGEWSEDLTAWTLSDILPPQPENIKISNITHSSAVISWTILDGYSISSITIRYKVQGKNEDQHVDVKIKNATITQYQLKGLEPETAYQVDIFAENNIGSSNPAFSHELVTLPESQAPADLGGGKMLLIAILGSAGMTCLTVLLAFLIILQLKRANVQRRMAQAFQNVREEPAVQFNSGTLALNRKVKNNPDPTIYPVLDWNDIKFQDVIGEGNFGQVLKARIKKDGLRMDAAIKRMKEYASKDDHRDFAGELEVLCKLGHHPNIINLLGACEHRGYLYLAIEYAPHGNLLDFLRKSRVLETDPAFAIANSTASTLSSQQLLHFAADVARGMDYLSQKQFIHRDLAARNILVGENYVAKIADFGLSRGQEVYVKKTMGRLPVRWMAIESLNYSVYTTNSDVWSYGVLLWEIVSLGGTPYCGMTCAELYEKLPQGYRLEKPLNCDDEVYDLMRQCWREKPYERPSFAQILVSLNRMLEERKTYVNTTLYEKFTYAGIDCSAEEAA

Chain of MAP kinase-activated protein kinase 2 (Homo sapiens) (P49137 whole entry, looked up): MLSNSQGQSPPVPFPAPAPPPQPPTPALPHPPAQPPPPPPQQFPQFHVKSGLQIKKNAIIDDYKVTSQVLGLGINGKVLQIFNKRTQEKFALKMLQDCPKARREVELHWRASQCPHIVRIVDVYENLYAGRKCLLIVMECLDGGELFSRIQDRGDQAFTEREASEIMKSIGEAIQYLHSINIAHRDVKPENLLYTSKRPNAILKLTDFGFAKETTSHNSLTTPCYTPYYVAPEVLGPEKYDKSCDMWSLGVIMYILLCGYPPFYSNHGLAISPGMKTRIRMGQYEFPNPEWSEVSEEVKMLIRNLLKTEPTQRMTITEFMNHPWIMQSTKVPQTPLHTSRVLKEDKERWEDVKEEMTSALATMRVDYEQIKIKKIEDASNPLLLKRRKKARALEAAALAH
Chain of Serine/threonine-protein kinase PLK2 (Homo sapiens) (Q9NYY3 whole entry, looked up): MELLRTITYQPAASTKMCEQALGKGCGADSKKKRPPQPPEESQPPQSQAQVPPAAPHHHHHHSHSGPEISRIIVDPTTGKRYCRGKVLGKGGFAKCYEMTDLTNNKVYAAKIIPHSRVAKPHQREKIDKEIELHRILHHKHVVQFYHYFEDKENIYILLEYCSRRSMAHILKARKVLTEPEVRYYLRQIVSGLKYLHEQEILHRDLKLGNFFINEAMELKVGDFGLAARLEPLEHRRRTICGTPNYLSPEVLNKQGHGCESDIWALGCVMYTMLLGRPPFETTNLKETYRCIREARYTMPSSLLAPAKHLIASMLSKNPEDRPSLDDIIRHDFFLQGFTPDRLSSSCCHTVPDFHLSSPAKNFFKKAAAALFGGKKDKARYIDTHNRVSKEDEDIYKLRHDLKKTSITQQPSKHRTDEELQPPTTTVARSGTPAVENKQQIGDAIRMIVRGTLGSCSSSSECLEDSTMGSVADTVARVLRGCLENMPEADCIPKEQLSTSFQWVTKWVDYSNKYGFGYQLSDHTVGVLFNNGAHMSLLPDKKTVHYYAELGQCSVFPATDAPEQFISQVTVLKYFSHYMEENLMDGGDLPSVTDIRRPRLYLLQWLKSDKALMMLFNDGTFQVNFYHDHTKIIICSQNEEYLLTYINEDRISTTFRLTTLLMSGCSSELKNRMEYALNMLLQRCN
Chain of Ephrin type-A receptor 4 (Homo sapiens) (P54764 whole entry): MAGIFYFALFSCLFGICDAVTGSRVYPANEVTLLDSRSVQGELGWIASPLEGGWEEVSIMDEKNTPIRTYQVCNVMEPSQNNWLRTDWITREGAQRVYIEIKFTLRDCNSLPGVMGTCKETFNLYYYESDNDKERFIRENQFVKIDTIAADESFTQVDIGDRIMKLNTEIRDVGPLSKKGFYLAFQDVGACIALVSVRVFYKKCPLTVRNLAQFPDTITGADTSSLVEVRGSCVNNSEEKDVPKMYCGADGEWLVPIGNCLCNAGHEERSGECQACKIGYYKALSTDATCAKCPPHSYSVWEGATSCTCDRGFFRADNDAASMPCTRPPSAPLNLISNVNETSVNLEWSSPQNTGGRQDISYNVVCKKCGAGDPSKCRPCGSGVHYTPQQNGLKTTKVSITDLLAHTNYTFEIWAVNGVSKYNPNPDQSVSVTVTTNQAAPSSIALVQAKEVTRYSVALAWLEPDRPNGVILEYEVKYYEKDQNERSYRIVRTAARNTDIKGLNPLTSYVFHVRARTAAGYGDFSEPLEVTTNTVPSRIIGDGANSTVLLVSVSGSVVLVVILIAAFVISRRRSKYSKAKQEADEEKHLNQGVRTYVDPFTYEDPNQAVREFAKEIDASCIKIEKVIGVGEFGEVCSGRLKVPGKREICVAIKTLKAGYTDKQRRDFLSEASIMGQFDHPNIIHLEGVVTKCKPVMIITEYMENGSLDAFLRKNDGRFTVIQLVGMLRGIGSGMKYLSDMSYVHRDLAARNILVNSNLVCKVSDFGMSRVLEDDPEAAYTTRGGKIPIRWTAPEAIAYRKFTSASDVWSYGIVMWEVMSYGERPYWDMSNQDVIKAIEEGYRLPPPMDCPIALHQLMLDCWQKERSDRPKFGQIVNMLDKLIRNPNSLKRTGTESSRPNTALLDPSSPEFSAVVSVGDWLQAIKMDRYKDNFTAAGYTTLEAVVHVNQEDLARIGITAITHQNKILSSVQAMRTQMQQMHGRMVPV
Chain of RAF proto-oncogene serine/threonine-protein kinase (Homo sapiens) (P04049 whole entry): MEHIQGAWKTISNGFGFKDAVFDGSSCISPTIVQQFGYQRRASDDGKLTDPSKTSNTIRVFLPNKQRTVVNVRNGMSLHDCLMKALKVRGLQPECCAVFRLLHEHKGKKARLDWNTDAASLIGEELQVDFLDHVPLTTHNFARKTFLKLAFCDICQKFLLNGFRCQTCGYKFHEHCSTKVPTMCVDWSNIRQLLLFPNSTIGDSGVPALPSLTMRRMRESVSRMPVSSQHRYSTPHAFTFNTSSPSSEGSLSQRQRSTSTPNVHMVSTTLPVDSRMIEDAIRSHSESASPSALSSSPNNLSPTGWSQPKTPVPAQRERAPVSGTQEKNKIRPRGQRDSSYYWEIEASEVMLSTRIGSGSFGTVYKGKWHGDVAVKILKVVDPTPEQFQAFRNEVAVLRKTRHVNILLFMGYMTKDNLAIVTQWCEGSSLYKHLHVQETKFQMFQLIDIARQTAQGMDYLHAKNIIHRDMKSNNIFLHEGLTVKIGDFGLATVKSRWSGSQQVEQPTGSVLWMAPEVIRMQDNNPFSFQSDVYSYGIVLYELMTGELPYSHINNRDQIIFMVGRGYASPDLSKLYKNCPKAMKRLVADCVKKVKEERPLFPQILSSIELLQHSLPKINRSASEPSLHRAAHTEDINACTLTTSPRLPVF
Chain of Tyrosine-protein kinase ABL1 (Homo sapiens) (P00519 whole entry): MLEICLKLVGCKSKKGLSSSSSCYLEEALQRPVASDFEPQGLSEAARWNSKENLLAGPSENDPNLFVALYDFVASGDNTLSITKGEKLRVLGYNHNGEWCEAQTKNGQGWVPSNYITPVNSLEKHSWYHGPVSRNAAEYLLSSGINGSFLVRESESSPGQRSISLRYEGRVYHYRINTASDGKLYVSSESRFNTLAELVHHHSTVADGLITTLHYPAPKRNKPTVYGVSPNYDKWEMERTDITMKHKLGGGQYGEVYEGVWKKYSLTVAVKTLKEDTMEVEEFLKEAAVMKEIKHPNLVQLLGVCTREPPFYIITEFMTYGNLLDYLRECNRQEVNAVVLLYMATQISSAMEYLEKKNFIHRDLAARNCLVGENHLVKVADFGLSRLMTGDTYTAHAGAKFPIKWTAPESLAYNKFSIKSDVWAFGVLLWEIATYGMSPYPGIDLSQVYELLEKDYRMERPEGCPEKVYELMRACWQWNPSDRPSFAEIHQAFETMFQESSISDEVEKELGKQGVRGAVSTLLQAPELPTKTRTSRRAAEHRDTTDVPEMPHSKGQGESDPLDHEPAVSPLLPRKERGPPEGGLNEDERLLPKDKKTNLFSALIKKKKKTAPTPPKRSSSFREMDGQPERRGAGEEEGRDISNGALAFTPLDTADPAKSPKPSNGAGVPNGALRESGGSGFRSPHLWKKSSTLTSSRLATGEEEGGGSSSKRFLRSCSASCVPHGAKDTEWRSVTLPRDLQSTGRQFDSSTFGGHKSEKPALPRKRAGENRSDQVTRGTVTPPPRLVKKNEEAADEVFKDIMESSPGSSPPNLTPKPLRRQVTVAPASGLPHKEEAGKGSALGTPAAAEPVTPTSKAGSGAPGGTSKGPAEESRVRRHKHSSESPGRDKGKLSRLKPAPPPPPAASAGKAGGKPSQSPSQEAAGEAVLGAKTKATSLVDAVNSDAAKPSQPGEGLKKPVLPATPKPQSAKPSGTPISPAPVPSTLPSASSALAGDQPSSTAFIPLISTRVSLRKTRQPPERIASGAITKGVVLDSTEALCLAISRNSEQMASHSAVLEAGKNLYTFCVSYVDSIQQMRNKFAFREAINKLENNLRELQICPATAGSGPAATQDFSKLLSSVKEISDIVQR

Consider `Cc1ccc2cc(-c3n[nH]c4ccc(NC5CCNC5)cc34)[nH]c2c1` (configuration not stated), for which the residual activity in assay [1] came to 99%; in assay [2], 98%; in assay [3] it was 92%; in assay [5] it was 92%; in [6] it was 90%; in [7], 104%. Moreover, the residual activity came to 105% in assay [8], 2% in assay [9], 0% in [10] and 17% in assay [11]. Also, in assay [4], the inhibition (commonly the share of the control response that was lost under treatment) stood at 48%.
For the compound `Cc1ccc2cc(-c3n[nH]c4ccc(NC5CCN(Cc6ccccc6)CC5)cc34)[nH]c2c1`, the residual activity in [1] is 103%; in assay [2], 99%; in [3] it was 101%; in assay [5], 104%; in assay [6], 78%; in assay [7], 97%. Besides, the residual activity in assay [8] is 89%; in [9], 7%; in assay [10], 0%; in assay [11], 83%. Besides, in assay [4], the inhibition turned out to be 93%.

For the origin of these results see ChEMBL document CHEMBL1681705, “Optimisation of ITK inhibitors through successive iterative design cycles” (Bioorg Med Chem Lett, 2011).
